Results taken from patent US9987376B2, “Delivery system for delivery of a substance into the oral cavity” (NORINVENT AB, priority 2008, dated 2018).
Read-outs that look alike come from different tables or passages of the source. Each block holds one molecule with its values, some of them ahead of it.

Tests used:
[1] = tested on: motion sickness in White/white laboratory standard rats; assay: rat centrifuge motion sickness test; assay type: in vivo
Protocol: In test group A, the rats were given scopolamine.
Group B served as a control and was treated with uncoupled scopolamine and a starch matrix carrier without sugar chains.
The membrane size was 1×1 mm made out of starch. To this the labelled sugar chains were coupled and one membrane was put under the upper lip of each rat.
Three equally calibrated centrifuges were used in the test, one for each group of rats A, B, C. Each centrifuge was placed in a box having an entrance/exit through which the rats could move freely between their cage and the centrifuge box. The rats were first allowed to find their way into the centrifuge box before they were lifted up and placed in the centrifuge.
The rats were subsequently spun in the centrifuges at 3 G during 30 seconds.
After centrifugation, the ability of each group A, B, C to localize the exit in the centrifuge box and to return to the cage as well as general steadiness were observed.

[2] = rat, in vivo
Protocol: White/white laboratory standard rats were used for the tests. In test group A, the rats were given scopolamine.
The rats were terminated by carbon-dioxide 4 h after centrifugation and the intestinal organs were examined. The presence of scopolamine or citalopram in the rat bodies was detected by spectrophotometrics and digital imaging as described in Goncalves, Diaz and Moses et al.

[3] = tested on: headache caused by the red wine; assay: relief of red wine headache in voluntary humans; assay type: in vivo, human; conditions: Group A: 40 mg (1/10 of normal oral dose) bonded to a carrier according to the invention
Protocol: A further test was performed on voluntary humans. The test was performed on a group of 19 persons. Each test person was given 2 L of red wine without gender discrimination. The wine was consumed during 3 hours the evening before testing. The following morning the individuals were divided into two groups A and B, respectively. Group A received 40 mg ( 1/10 of a normal orally administered dose) of ibumetine bonded to a carrier according to the invention. Group B where given an empty membrane with only sugar chains and no active substance. Group A felt a total relief of the headache caused by the red wine within 5 minutes, whereas group B felt no relief at all from the bare membrane with sugar chains. Group B where therefore treated with 400 mg ibumetine by conventional oral delivery. Various degrees of relief were noted after 45 min-1 h. The test procedure is diagrammatically illustrated in FIG. 3.

[4] = White/white laboratory standard, 4 h

Structure (SMILES): CN1[C@@H]2C[C@@H](OC(=O)[C@H](CO)c3ccccc3)C[C@H]1[C@@H]1O[C@@H]12 [scopolamine]
behaviour / signs of motion sickness after centrifugation ([1]; Group A: 1/10 of a normal dose bound by sugar chains to starch matrix, under upper lip, 3 G, 30 seconds): no change in normal behaviour
ability to localize the exit in the centrifuge box ([1]; Group A: 1/10 of a normal dose bound by sugar chains to starch matrix, 3 G, 30 seconds): managed to directly locate the exit
behaviour / signs of motion sickness after centrifugation ([1]; Group B: same amount of uncoupled substance with starch matrix without sugar chains, 3 G, 30 seconds): clear signs of motion sickness
ability to localize the exit in the centrifuge box ([1]; Group B: uncoupled substance, starch matrix without sugar chains, test period of 1 h): could not find the exit
active substance in kidney or liver ([2]; White/white laboratory standard): over 75%
active substance in the kidneys [2]: less than 0.1%
active substance in the liver [2]: less than 0.2%

Structure (SMILES): CC(C)Cc1ccc(C(C)C(=O)O)cc1 (stereo not shown) [ibumetine]
time to total relief of the headache [3]: ≤ 5 min

active substance in kidney or liver [2, 4]: over 75%
active substance in the brain [2, 4]: less than 4%
active substance in the brain ([2]; 4 h): 99%
active substance in the kidneys ([2]; 4 h): less than 0.1%
active substance in the liver ([2]; 4 h): less than 0.2%
Structure (SMILES): CN(C)CCCC1(c2ccc(F)cc2)OCc2cc(C#N)ccc21 (stereo not shown) [citalopram]
